Measured values reported in US20250049812A1, “Compounds that Inhibit Necroptosis and Their Preparation Methods” (SHANGHAI INSTITUTE OF ORGANIC CHEMISTRY, CHINESE ACADEMY OF …, priority 2021, published 2025).

System: Jurkat FADD (−/−) Cells
Test: TNF-α induced necroptosis of Jurkat FADD-deficient cells (CellTiter-Glo cell survival)
Type: cell-based, human
Details: Homo sapiens; TNF-α induced necroptosis, Jurkat FADD-deficient cells, 13 hours, CellTiter-Glo; read-out: IC50
Experimental: 1. Cell Activity Testing System (TNF-α Induces the Necroptosis of Jurkat Cells, the Human Leukemia Cells Deficient in FADD).
(1) Cell culture: Jurkat FADD-deficient cells were cultured in an RPMI 1640 medium with 10% fetal bovine serum (FBS), 100 U/mL penicillin, and 100 […]. The cells were cultured in a cell culture incubator at 37° C. with 5% CO2. And all the cells were cryopreserved in a complete medium containing 5-10% DMSO. Medium change and passage were performed 3-4 times per week.
(4) Experimental scheme: The system of TNF-α inducing the necroptosis of Jurkat FADD-deficient cells was used to screen for compounds with RIPKl kinase inhibitory activity.
Jurkat FADD-deficient cells were evenly inoculated into a 384-well plate with each well added with a 40 μL complete culture medium, followed by the addition of 5 μL of the under-testing compound to each well. The initial concentration of the compounds was set at 25 μM (for some compounds with higher activity, the initial concentration was set at 0.5 μM), with a three-fold gradient dilution, totaling 12 gradient points. Three replicate wells were set for each compound. In addition, there was a blank control group and a control group with TNFα stimulation only. After the compound was added, the mixture needed to be centrifuged and incubated in a cell culture incubator at 37° C. containing 5% CO2 for 1 hour. After that, 5 μL of 5 ng/mL TNFα was added to stimulate the occurrence of necroptosis. After centrifugation and mixing, the mixture was placed in the cell culture incubator for 13 hours (until the cell death rate reaches 65% in the group with only TNF-α), with a total volume of 50 μL per well. Then, the steps below were followed to test the cell survival rate.
The CellTiter-Glo® Buffer was removed from the reagent kit, equilibrated to room temperature, and used to dissolve the CellTiter-Glo® Substrate. The CellTiter-Glo® Reagent obtained could be directly used for the experiment.
15 μL of CellTiter-Glo® Reagent which has been equilibrated to room temperature was added to each well, and incubated in the dark for 15 minutes. After that, a microplate reader (Enspire Multimode Plate Reader of PerkinElmer, USA) was used to measure the chemiluminescence.

Structure (SMILES) | IC50
CN1C(=O)C(NC(=O)c2nnc(Cc3ccccc3)[nH]2)Cn2c(C(=O)O)cc3cccc1c32 (racemic) [T-13, (±)-3-(5-benzyl-4H-1,2,4-triazole-3-carboxamido)-1-methyl-2-oxy-1,2,3,4-tetrahydro-[1,4] diazepino [3,2,1-hi] indole-6-carboxylic Acid] | > 1000 nM
CN1C(=O)C(NC(=O)c2nnc(Cc3ccccc3)[nH]2)CN2CCc3cccc1c32 (racemic) [T-14, (±)-5-benzyl-N-(1-methyl-2-oxo-1,2,3,4,6,7-hexahydro-[1,4]diazepino [3,2,1-hi]indol-3-yl)-4H-1,2,4-triazole-3-carboxamide] | 10 to 100 nM
CN1C(=O)C(NC(=O)c2nnc(Cc3ccccc3)[nH]2)Cn2cc(-c3cnn(C)c3)c3cccc1c32 (racemic) [T-15, (±)-5-benzyl-N-(1-methyl-7-(1-methyl-1H-pyrazol-4-yl)-2-oxy-1,2,3,4-tetrahydro-[1,4]diazepino [3,2,1-hi]indol-3-yl)-4H-1,2,4-triazole-3-carboxamide] | < 10 nM
CN1C(=O)C(NC(=O)c2nnc(Cc3ccccc3)[nH]2)Cn2cc(-c3cccnc3)c3cccc1c32 (racemic) [T-17, (±)-5-benzyl-N-(1-methyl-2-oxo-7-(pyridin-3-yl)-1,2,3,4-tetrahydro-[1,4]diazepino [3,2,1-hi]indol-3-yl)-4H-1,2,4-triazole-3-carboxamide] | 10 to 100 nM
CN1C(=O)C(NC(=O)c2nnc(Cc3ccccc3)[nH]2)Cn2cc(-c3cc(C(F)(F)F)nn3C)c3cccc1c32 (racemic) [T-18, (±)-5-benzyl-N-(1-methyl-7-(1-methyl-3-(trifluoromethyl)-1H-pyrazol-5-yl)-2-oxo-1,2,3,4-tetrahydro-[1,4]diazepino [3,2,1-hi]indol-3-yl)-4H-1,2,4-triazole-3-carboxamide] | < 10 nM
CN1C(=O)C(NC(=O)c2nnc(Cc3ccccc3)[nH]2)Cc2c[nH]c3cccc1c23 (racemic) [T-19, (±)-5-benzyl-N-(1-methyl-2-oxo-2,3,4,6-tetrahydro-1H-azacyclo [4,3,2-cd]indol-3-yl)-4H-1,2,4-triazole-3-carboxamide] | < 10 nM
CN1C(=O)C(NC(=O)c2nnc(Cc3ccccc3)[nH]2)Cc2cn(C)c3cccc1c23 (racemic) [T-20, (±)-5-benzyl-N-(1,6-dimethyl-2-oxo-2,3,4,6-tetrahydro-1H-azacyclo [4,3,2-cd]indol-3-yl)-4H-1,2,4-triazole-3-carboxamide] | 10 to 100 nM
CN1C(=O)C(NC(=O)c2nnc(Cc3ccccc3)[nH]2)Cc2cn(S(=O)(=O)c3ccccc3)c3cccc1c23 (racemic) [T-21, (±)-5-benzyl-N-(1-methyl-2-oxo-6-(benzenesulfonyl)-2,3,4,6-tetrahydro-1H-aza [4,3,2-cd]indol-3-yl)-4H-1,2,4-triazole-3-carboxamide] | 100 to 1000 nM
CN1C(=O)C(NC(=O)c2nnc(Cc3ccccc3)[nH]2)Cc2cn(CC3CC3)c3cccc1c23 (racemic) [T-22, (±)-5-benzyl-N-(6-(cyclopropylmethyl)-1-methyl-2-oxo-2,3,4,6-tetrahydro-1H-azacyclo [4,3,2-cd]indol-3-yl)-4H-1,2,4-triazole-3-carboxamide] | 10 to 100 nM
CN1C(=O)C(NC(=O)c2nnc(Cc3ccccc3)[nH]2)Cc2cn(C3CC3)c3cccc1c23 (racemic) [T-23, (±)-5-benzyl-N-(6-cyclopropyl-1-methyl-2-oxo-2,3,4,6-tetrahydro-1H-azacyclo [4,3,2-cd]indol-3-yl)-4H-1,2,4-triazole-3-carboxamide] | 100 to 1000 nM
CN1C(=O)C(NC(=O)c2nnc(Cc3ccccc3)[nH]2)Cc2cn(-c3ccccc3)c3cccc1c23 (racemic) [T-24, (±)-5-benzyl-N-(1-methyl-2-oxo-6-phenyl-2,3,4,6-tetrahydro-1H-azacyclo [4,3,2-cd]indol-3-yl)-4H-1,2,4-triazole-3-carboxamide] | 10 to 100 nM
